Results: PubChem BioAssay AID2060909 (Molecular Pharmacology Branch, DTP, NCI, 2025)

Tested on: 362531-283-R-J2-PDC complex spheroid viability
Assay: Anticancer human tumor 362531-283-R-J2-PDC patient-derived colon adenocarcinoma cell line growth inhibition [RAS]
Conditions: for IC50: curve of first compound; for viability, T/C: stronger effect = lower value
In short: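 Agents were tested in combination matrices in half-log decrements from a top concentration at or near clinical Cmax (10 microM if undetermined). Targets were multi-cell spheroids of tumour lines plus HUVEC and MSC stromal cells.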

[1] = second compound 0.0316 µM, first compound 0.0316 µM
[2] = second compound 0.0316 µM, first compound 0.1 µM
[3] = second compound 0.1 µM, first compound 0.0316 µM
[4] = second compound 0.1 µM, first compound 0.1 µM
[5] = second compound 0.316 µM, first compound 0.0316 µM
[6] = second compound 0.316 µM, first compound 0.1 µM
[7] = second compound 1 µM, first compound 0.0316 µM
[8] = second compound 1 µM, first compound 0.1 µM
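Further: spheroids exposed to the agents for 7 days before readout.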
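Wherever viability, T/C is given: luminescence viability as percent of DMSO vehicle control wells.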

Question: `O=C(c1ccc(F)c(F)c1Nc1ccc(I)cc1F)N1CC(O)([C@@H]2CCCCN2)C1` + CCn1c(-c2cccnc2C(C)OC)c2c3cc(ccc31)N1CCOC(CC(NC(=O)C(C(C)C)N(C)C(=O)C3(F)CCN(C(=O)C#CC(C)(C)N(C)C)CC3)C(=O)N3CCCC(N3)C(=O)OCC(C)(C)C2)C1 was tested. Which IC50 (second compound 0.000949 µM) did it give?
Answer: 628 nM

Question: And the IC50 (second compound 0.003 µM)?
Answer: 537 nM

Question: What about the IC50 (second compound 0.00949 µM) of the same molecule?
Answer: 573 nM

Question: And the IC50 (second compound 0.03 µM)?
Answer: 684 nM

Question: What about the IC50 (second compound 0.0949 µM) of the same molecule?
Answer: 580 nM

Question: What about the IC50 (second compound 0.3 µM) of the same molecule?
Answer: 604 nM

Question: What about the viability, T/C (second compound 0.000949 µM, first compound 0.00316 µM) of the same molecule?
Answer: 94%

Question: What about the viability, T/C (second compound 0.000949 µM, first compound 0.01 µM) of the same molecule?
Answer: 94.9%

Question: What about the viability, T/C (second compound 0.000949 µM, first compound 0.0316 µM) of the same molecule?
Answer: 101%

Question: And the viability, T/C (second compound 0.000949 µM, first compound 0.1 µM)?
Answer: 91.3%

Question: What about the viability, T/C (second compound 0.000949 µM, first compound 0.316 µM) of the same molecule?
Answer: 88%

Question: And the viability, T/C (second compound 0.000949 µM, first compound 1 µM)?
Answer: 24.4%

Question: And the viability, T/C (second compound 0.003 µM, first compound 0.00316 µM)?
Answer: 102%

Question: What about the viability, T/C (second compound 0.003 µM, first compound 0.01 µM) of the same molecule?
Answer: 108%

Question: What about the viability, T/C (second compound 0.003 µM, first compound 0.0316 µM) of the same molecule?
Answer: 107%

Question: And the viability, T/C (second compound 0.003 µM, first compound 0.1 µM)?
Answer: 83.2%

Question: And the viability, T/C (second compound 0.003 µM, first compound 0.316 µM)?
Answer: 81.8%

Question: And the viability, T/C (second compound 0.003 µM, first compound 1 µM)?
Answer: 18.4%

Question: What about the viability, T/C (second compound 0.00949 µM, first compound 0.00316 µM) of the same molecule?
Answer: 86%

Question: What about the viability, T/C (second compound 0.00949 µM, first compound 0.01 µM) of the same molecule?
Answer: 108%

Question: What about the viability, T/C (second compound 0.00949 µM, first compound 0.0316 µM) of the same molecule?
Answer: 102%

Question: And the viability, T/C (second compound 0.00949 µM, first compound 0.1 µM)?
Answer: 88.8%

Question: What about the viability, T/C (second compound 0.00949 µM, first compound 0.316 µM) of the same molecule?
Answer: 82.1%

Question: And the viability, T/C (second compound 0.00949 µM, first compound 1 µM)?
Answer: 20.9%

Question: What about the viability, T/C (second compound 0.03 µM, first compound 0.00316 µM) of the same molecule?
Answer: 97.7%

Question: And the viability, T/C (second compound 0.03 µM, first compound 0.01 µM)?
Answer: 98.6%

Question: And the viability, T/C (second compound 0.03 µM, first compound 0.0316 µM)?
Answer: 104%

Question: And the viability, T/C (second compound 0.03 µM, first compound 0.1 µM)?
Answer: 91.2%

Question: And the viability, T/C (second compound 0.03 µM, first compound 0.316 µM)?
Answer: 99%

Question: And the viability, T/C (second compound 0.03 µM, first compound 1 µM)?
Answer: 26.4%

Question: What about the viability, T/C (second compound 0.0949 µM, first compound 0.00316 µM) of the same molecule?
Answer: 105%

Question: And the viability, T/C (second compound 0.0949 µM, first compound 0.01 µM)?
Answer: 103%

Question: And the viability, T/C (second compound 0.0949 µM, first compound 0.0316 µM)?
Answer: 103%

Question: And the viability, T/C (second compound 0.0949 µM, first compound 0.1 µM)?
Answer: 81.8%

Question: What about the viability, T/C (second compound 0.0949 µM, first compound 0.316 µM) of the same molecule?
Answer: 86.8%

Question: What about the viability, T/C (second compound 0.0949 µM, first compound 1 µM) of the same molecule?
Answer: 22.3%

Question: What about the viability, T/C (second compound 0.3 µM, first compound 0.00316 µM) of the same molecule?
Answer: 89%

Question: What about the viability, T/C (second compound 0.3 µM, first compound 0.01 µM) of the same molecule?
Answer: 90.8%

Question: What about the viability, T/C (second compound 0.3 µM, first compound 0.0316 µM) of the same molecule?
Answer: 99%

Question: What about the viability, T/C (second compound 0.3 µM, first compound 0.1 µM) of the same molecule?
Answer: 82%

Question: And the viability, T/C (second compound 0.3 µM, first compound 0.316 µM)?
Answer: 88.2%

Question: What about the viability, T/C (second compound 0.3 µM, first compound 1 µM) of the same molecule?
Answer: 20.3%

Question: For `CC(C)n1nc(-c2ccc3oc(N)nc3c2)c2c(N)ncnc21` + C#Cc1c(F)ccc2cc(O)cc(-c3ncc4c(N5CC6CCC(C5)N6)nc(OCC56CCCN5CC(F)C6)nc4c3F)c12, which IC50 (second compound 0.0316 µM) is on record?
Answer: > 100 nM

Question: What about the IC50 (second compound 0.1 µM) of the same molecule?
Answer: > 100 nM

Question: And the IC50 (second compound 0.316 µM)?
Answer: 20.5 nM

Question: And the IC50 (second compound 1 µM)?
Answer: 13.1 nM

Question: What about the IC50 (second compound 3.16 µM) of the same molecule?
Answer: 3.09 nM

Question: And the IC50 (second compound 10 µM)?
Answer: < 0.316 nM

Question: What about the viability, T/C (second compound 0.0316 µM, first compound 0.000316 µM) of the same molecule?
Answer: 96%

Question: What about the viability, T/C (second compound 0.0316 µM, first compound 0.001 µM) of the same molecule?
Answer: 87.6%

Question: What about the viability, T/C (second compound 0.0316 µM, first compound 0.00316 µM) of the same molecule?
Answer: 91.9%

Question: What about the viability, T/C (second compound 0.0316 µM, first compound 0.01 µM) of the same molecule?
Answer: 78.7%

Question: What about the viability, T/C [1] of the same molecule?
Answer: 50.2%

Question: What about the viability, T/C [2] of the same molecule?
Answer: 53.2%

Question: What about the viability, T/C (second compound 0.1 µM, first compound 0.000316 µM) of the same molecule?
Answer: 104%

Question: And the viability, T/C (second compound 0.1 µM, first compound 0.001 µM)?
Answer: 98%

Question: What about the viability, T/C (second compound 0.1 µM, first compound 0.00316 µM) of the same molecule?
Answer: 86.3%

Question: And the viability, T/C (second compound 0.1 µM, first compound 0.01 µM)?
Answer: 68%

Question: What about the viability, T/C [3] of the same molecule?
Answer: 66.6%

Question: What about the viability, T/C [4] of the same molecule?
Answer: 48.7%

Question: What about the viability, T/C (second compound 0.316 µM, first compound 0.000316 µM) of the same molecule?
Answer: 91.9%

Question: What about the viability, T/C (second compound 0.316 µM, first compound 0.001 µM) of the same molecule?
Answer: 94.5%

Question: And the viability, T/C (second compound 0.316 µM, first compound 0.00316 µM)?
Answer: 85.6%

Question: What about the viability, T/C (second compound 0.316 µM, first compound 0.01 µM) of the same molecule?
Answer: 62.5%

Question: What about the viability, T/C [5] of the same molecule?
Answer: 41.1%

Question: And the viability, T/C [6]?
Answer: 41.5%

Question: And the viability, T/C (second compound 1 µM, first compound 0.000316 µM)?
Answer: 80.4%

Question: And the viability, T/C (second compound 1 µM, first compound 0.001 µM)?
Answer: 86.2%

Question: What about the viability, T/C (second compound 1 µM, first compound 0.00316 µM) of the same molecule?
Answer: 78.2%

Question: What about the viability, T/C (second compound 1 µM, first compound 0.01 µM) of the same molecule?
Answer: 51.9%

Question: What about the viability, T/C [7] of the same molecule?
Answer: 45.9%

Question: And the viability, T/C [8]?
Answer: 38.4%

Question: And the viability, T/C (second compound 3.16 µM, first compound 0.000316 µM)?
Answer: 74.2%

Question: And the viability, T/C (second compound 3.16 µM, first compound 0.001 µM)?
Answer: 55.2%

Question: What about the viability, T/C (second compound 3.16 µM, first compound 0.00316 µM) of the same molecule?
Answer: 57.4%

Question: And the viability, T/C (second compound 3.16 µM, first compound 0.01 µM)?
Answer: 35.3%

Question: And the viability, T/C (second compound 3.16 µM, first compound 0.0316 µM)?
Answer: 33.6%

Question: And the viability, T/C (second compound 3.16 µM, first compound 0.1 µM)?
Answer: 26.1%

Question: What about the viability, T/C (second compound 10 µM, first compound 0.000316 µM) of the same molecule?
Answer: 42.9%

Question: What about the viability, T/C (second compound 10 µM, first compound 0.001 µM) of the same molecule?
Answer: 42.5%

Question: And the viability, T/C (second compound 10 µM, first compound 0.00316 µM)?
Answer: 34%

Question: And the viability, T/C (second compound 10 µM, first compound 0.01 µM)?
Answer: 25.5%

Question: What about the viability, T/C (second compound 10 µM, first compound 0.0316 µM) of the same molecule?
Answer: 20.1%

Question: What about the viability, T/C (second compound 10 µM, first compound 0.1 µM) of the same molecule?
Answer: 18.3%

Question: Which results are given for `CC(Nc1ccc2c(c1)OCCn1cc(N3C(=O)OCC3C(F)F)nc1-2)C(N)=O` (stereo unspecified) + C=CC(=O)N1CCN(c2nc(OCC3CCCN3C)nc3c(F)c(-c4nc(N)cc(C)c4C(F)(F)F)c(Cl)cc23)C(C)C1?
Answer: IC50 (second compound 0.00316 µM): 549 nM; IC50 (second compound 0.01 µM): 928 nM; IC50 (second compound 0.0316 µM): 666 nM; IC50 (second compound 0.1 µM): 810 nM; IC50 (second compound 0.316 µM): 839 nM; IC50 (second compound 1 µM): 808 nM; viability, T/C (second compound 0.00316 µM, first compound 0.0316 µM): 96.6%; viability, T/C (second compound 0.00316 µM, first compound 0.1 µM): 78.6%; viability, T/C (second compound 0.00316 µM, first compound 0.316 µM): 54.5%; viability, T/C (second compound 0.00316 µM, first compound 1 µM): 46.1%; viability, T/C (second compound 0.00316 µM, first compound 3.16 µM): 39.1%; viability, T/C (second compound 0.00316 µM, first compound 10 µM): 42.7%; viability, T/C (second compound 0.01 µM, first compound 0.0316 µM): 97.4%; viability, T/C (second compound 0.01 µM, first compound 0.1 µM): 86.2%; viability, T/C (second compound 0.01 µM, first compound 0.316 µM): 70.2%; viability, T/C (second compound 0.01 µM, first compound 1 µM): 46.8%; viability, T/C (second compound 0.01 µM, first compound 3.16 µM): 38.3%; viability, T/C (second compound 0.01 µM, first compound 10 µM): 30.3%; viability, T/C [1]: 87.4%; viability, T/C [2]: 84.4%; viability, T/C (second compound 0.0316 µM, first compound 0.316 µM): 63.7%; viability, T/C (second compound 0.0316 µM, first compound 1 µM): 43.5%; viability, T/C (second compound 0.0316 µM, first compound 3.16 µM): 33.3%; viability, T/C (second compound 0.0316 µM, first compound 10 µM): 43.4%; viability, T/C [3]: 95.9%; viability, T/C [4]: 92.5%; viability, T/C (second compound 0.1 µM, first compound 0.316 µM): 71.7%; viability, T/C (second compound 0.1 µM, first compound 1 µM): 44.2%; viability, T/C (second compound 0.1 µM, first compound 3.16 µM): 35.4%; viability, T/C (second compound 0.1 µM, first compound 10 µM): 27.4%; viability, T/C [5]: 107%; viability, T/C [6]: 88%; viability, T/C (second compound 0.316 µM, first compound 0.316 µM): 68.8%; viability, T/C (second compound 0.316 µM, first compound 1 µM): 47.9%; viability, T/C (second compound 0.316 µM, first compound 3.16 µM): 31.9%; viability, T/C (second compound 0.316 µM, first compound 10 µM): 35.8%; viability, T/C [7]: 94.8%; viability, T/C [8]: 95.6%; viability, T/C (second compound 1 µM, first compound 0.316 µM): 72%; viability, T/C (second compound 1 µM, first compound 1 µM): 46.6%; viability, T/C (second compound 1 µM, first compound 3.16 µM): 31.8%; viability, T/C (second compound 1 µM, first compound 10 µM): 35%
